This is an account of results in US7994209B2, “3-phenoxymethylpyrrolidine compounds” (Theravance, Inc., priority 2009, dated 2011).

Test [1] concerns the target T1, hNET (Homo sapiens, UniProt P23975). The experiment in a line: hNET neurotransmitter uptake assay (3H-NE), Assay 2. Format: cell-based. Also noted: expressed in transfected cells; host or cells: HEK-293. The note with it: norepinephrine reuptake inhibition, 3H-NE uptake, HEK-293 hNET cells (values without asterisk); read-out: NET pIC50 (converted). Here is the method: (§1) Cells were harvested by centrifugation at 1100 rpm for 5 minutes, washed once by resuspension in PBS, then centrifuged. The supernatant was discarded and the cell pellet resuspended, by gentle trituration, in room temperature Krebs-Ringer bicarbonate buffer containing HEPES (10 mM), CaCl2 (2.2 mM), ascorbic acid (200 μM) and pargyline (200 μM), pH 7.4.
(§2) Test compounds were incubated for 30 minutes at 37° C. with the respective cells, prior to addition of radiolabeled neurotransmitter, ^3H-5-HT (20 nM final concentration), ^3H-NE (50 nM final concentration) or ^3H-DA (100 nM final concentration).

Test [2] has as its target T2, hSERT (Homo sapiens, UniProt P31645). Put plainly: hSERT neurotransmitter uptake assay (3H-5-HT), Assay 2. The format is cell-based. The settings on record: serotonin reuptake inhibition, 3H-5-HT uptake, HEK-293 hSERT cells (values without asterisk); read-out: SERT pIC50 (converted). The arrangement: expressed in transfected cells; host or cells: HEK-293. As for the experimental part: as §1, §2

Test [3] deals with T1, hNET. Put plainly: hNET membrane radioligand binding assay (3H-nisoxetine), Assay 1.
Test [4] concerns the target T2, hSERT. Put plainly: hSERT membrane radioligand binding assay (3H-citalopram), Assay 1. The note with it: SERT pKi, hSERT HEK-293 membranes, 1.0 nM 3H-citalopram; values given as lower bounds.

T2 sequence (P31645 whole entry): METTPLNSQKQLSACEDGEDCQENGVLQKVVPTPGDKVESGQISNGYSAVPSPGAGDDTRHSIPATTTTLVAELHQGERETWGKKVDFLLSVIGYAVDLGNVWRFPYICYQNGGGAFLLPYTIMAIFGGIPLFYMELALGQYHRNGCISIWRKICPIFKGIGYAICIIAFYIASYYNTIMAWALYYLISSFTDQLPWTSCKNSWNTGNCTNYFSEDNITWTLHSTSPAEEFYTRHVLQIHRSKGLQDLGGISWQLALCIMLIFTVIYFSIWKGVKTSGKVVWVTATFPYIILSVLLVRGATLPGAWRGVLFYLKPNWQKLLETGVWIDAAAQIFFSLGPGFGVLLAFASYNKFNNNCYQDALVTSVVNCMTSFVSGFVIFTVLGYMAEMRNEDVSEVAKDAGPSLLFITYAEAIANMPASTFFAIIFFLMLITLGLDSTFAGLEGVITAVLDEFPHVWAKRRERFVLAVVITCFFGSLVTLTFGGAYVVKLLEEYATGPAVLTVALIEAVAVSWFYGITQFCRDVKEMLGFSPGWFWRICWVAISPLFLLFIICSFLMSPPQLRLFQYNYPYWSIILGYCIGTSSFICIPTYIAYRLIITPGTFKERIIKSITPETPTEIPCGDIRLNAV
T1 sequence (P23975 whole entry): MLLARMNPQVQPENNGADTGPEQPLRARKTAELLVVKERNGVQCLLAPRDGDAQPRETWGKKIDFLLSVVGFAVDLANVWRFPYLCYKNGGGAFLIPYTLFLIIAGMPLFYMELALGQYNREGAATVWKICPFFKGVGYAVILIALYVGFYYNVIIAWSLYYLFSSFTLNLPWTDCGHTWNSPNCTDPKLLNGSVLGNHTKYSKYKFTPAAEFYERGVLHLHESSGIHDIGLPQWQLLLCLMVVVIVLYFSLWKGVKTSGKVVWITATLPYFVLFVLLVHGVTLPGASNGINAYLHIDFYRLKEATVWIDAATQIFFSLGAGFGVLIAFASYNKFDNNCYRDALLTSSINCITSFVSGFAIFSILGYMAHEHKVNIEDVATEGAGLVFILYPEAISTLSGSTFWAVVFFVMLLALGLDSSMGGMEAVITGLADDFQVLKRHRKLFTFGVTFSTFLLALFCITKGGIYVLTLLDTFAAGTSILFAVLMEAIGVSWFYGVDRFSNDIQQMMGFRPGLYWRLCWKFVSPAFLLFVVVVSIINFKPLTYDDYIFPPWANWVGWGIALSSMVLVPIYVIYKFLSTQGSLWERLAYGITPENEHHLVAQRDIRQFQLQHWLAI

Regarding `CC[C@H](Oc1ccc(F)cc1OC)[C@H]1CCNC1` [Example 2-69, (S)-3-[(S)-1-(4-Fluoro-2-methoxyphenoxy)propyl]pyrrolidine], the IC50 on hNET [1] and at hSERT [2] was at most 100 nM throughout. Besides, the Ki (usually a measure of affinity in units of concentration, obtained from inhibition or displacement) at hNET [3] is at most 10 nM; at hSERT [4], at most 100 nM.
As to `CC(C)CC(Oc1cccc(Cl)c1C(F)(F)F)C1CCNC1` (stereo not drawn) [Example 10-35, 3-[1-(3-Chloro-2-trifluoromethylphenoxy)-3-methylbutyl]pyrrolidine], the IC50 at hNET [1] and at hSERT [2] was at most 10 nM in each case. For the same compound, the Ki on hNET [3] and on hSERT [4] was at most 10 nM in each case.
As for `CC(C)[C@H](Oc1c(Cl)ccc(Cl)c1Cl)[C@H]1CCNC1` [Example 6-35, (S)-3-[(S)-2-Methyl-1-(2,3,6-trichlorophenoxy)-propyl]-pyrrolidine], the IC50 at hNET [1] and on hSERT [2] was at most 10 nM throughout. In addition, the Ki at hNET [3] and on hSERT [4] was at most 10 nM throughout.
In the case of `CCC[C@H](Oc1ccc(Cl)c(Cl)c1)[C@H]1CCNC1` [Example 4-12, (S)-3-[(S)-1-(3,4-Dichlorophenoxy)butyl]pyrrolidine], the IC50 at hNET [1] and on hSERT [2] was at most 10 nM each time. The Ki at hNET [3] and on hSERT [4] was at most 10 nM throughout.
For the compound `Cc1ccc(O[C@@H](C2CC2)[C@H]2CCNC2)c(Cl)c1` [Example 16-23, (S)-3-[(S)-(2-Chloro-4-methylphenoxy)cyclopropylmethyl]pyrrolidine], the IC50 on hNET [1] and on hSERT [2] was at most 10 nM throughout. For the same compound, the Ki on hNET [3] and on hSERT [4] was at most 10 nM in each case.
Take `Fc1cc(Cl)cc(F)c1O[C@@H](C1CC1)[C@H]1CCNC1` [Example 16-79, (S)-3-[(S)-(4-Chloro-2,6-difluorophenoxy)cyclopropylmethyl]pyrrolidine]: the IC50 at hNET [1] and at hSERT [2] was at most 10 nM throughout. Further, the Ki on hNET [3] and on hSERT [4] was at most 10 nM each time.
For `Cc1ccc(O[C@@H](C(C)C)[C@H]2CCNC2)c(Cl)c1` [Example 6-24, (S)-3-[(S)-1-(2-Chloro-4-methylphenoxy)-2-methylpropyl]pyrrolidine], the IC50 on hNET [1] and on hSERT [2] was at most 10 nM in each case. In addition, the Ki on hNET [3] and at hSERT [4] was at most 10 nM throughout.
Take `C=CC[C@H](Oc1cccc(Cl)c1C)[C@H]1CCNC1` [Example 24, (S)-3-[(S)-1-(3-Chloro-2-methylphenoxy)but-3-enyl]-pyrrolidine]: the IC50 at hNET [1] and on hSERT [2] was at most 10 nM throughout. In addition, the Ki on hNET [3] and at hSERT [4] was at most 10 nM each time.
Regarding `CCCC[C@@H](Oc1ccccc1Cl)[C@H]1CCNC1` [Example 8-1, (S)-3-[(R)-1-(2-Chlorophenoxy)pentyl]pyrrolidine], the IC50 was at most 10 nM on hNET [1] and at most 100 nM on hSERT [2]. For the same compound, the Ki on hNET [3] and on hSERT [4] was at most 10 nM throughout.
`CC(C)CC(Oc1c(F)ccc(Cl)c1F)C1CCNC1` (stereo not drawn) [Example 10-59, 3-[1-(3-Chloro-2,6-difluorophenoxy)-3-methylbutyl]pyrrolidine]: the IC50 at hNET [1] and at hSERT [2] was at most 10 nM throughout. For the same compound, the inhibitory constant (Ki) on hNET [3] and at hSERT [4] was at most 10 nM in each case.
`CC(C)CC(Oc1cccc(F)c1)C1CCNC1` (stereo not drawn) [Example 10-26, 3-[1-(3-Fluorophenoxy)-3-methylbutyl]pyrrolidine]: the IC50 on hNET [1] and on hSERT [2] was at most 10 nM throughout. The compound further displayed a Ki at hSERT [4] of at most 10 nM.
With `CCC[C@@H](Oc1cccc(Cl)c1C(F)(F)F)[C@H]1CCNC1` [Example 4-69, (S)-3-[(R)-1-(3-Chloro-2-trifluoromethylphenoxy)butyl]pyrrolidine], the figures for the Ki on hNET [3] and at hSERT [4] were at most 100 nM and at most 10 nM, respectively.
As for `FC1(F)CCC(C(Oc2cc(Cl)cc(Cl)c2)C2CCNC2)CC1` (stereo not drawn) [Example 21, 3-[(3,5-Dichloro-phenoxy)-(4,4-difluorocyclohexyl)methyl]pyrrolidine], the Ki at hNET [3] and at hSERT [4] was at most 10 nM in each case.
As to `CC[C@H](Oc1cccc(C(F)(F)F)c1)[C@H]1CCNC1` [Example 2-16, (S)-3-[(S)-1-(3-Trifluoromethylphenoxy)propyl]pyrrolidine], the figures for the Ki on hNET [3] and on hSERT [4] were at most 100 nM and at most 10 nM, respectively.
For `Cc1ccc(O[C@H](C2CC2)[C@@H]2CCNC2)c(Cl)c1` [Example 16-24, (R)-3-[(R)-(2-Chloro-4-methylphenoxy)cyclopropylmethyl]pyrrolidine] the same measures were at most 100 nM and at most 10 nM.
Consider `O=[N+]([O-])c1ccccc1O[C@H](C1CCCCC1)[C@H]1CCNC1` [Example 20-3, (S)-3-[(R)-Cyclohexyl-(2-nitrophenoxy)methyl]pyrrolidine], for which the Ki on hNET [3] was at most 10 nM; on hSERT [4], at most 100 nM.
Consider `CC[C@H](Oc1cccc(F)c1)[C@H]1CCNC1` [Example 2-9, (S)-3-[(S)-1-(3-Fluorophenoxy)propyl]pyrrolidine], for which the Ki on hNET [3] was at most 10 nM; at hSERT [4], at most 100 nM.
Turning to `CC[C@H](Oc1ccc(F)cc1)[C@H]1CCNC1` [Example 2-12, (S)-3-[(S)-1-(4-Fluorophenoxy)propyl]pyrrolidine], the Ki on hNET [3] and on hSERT [4] was at most 100 nM throughout.
With `CC(C)C(Oc1ccccc1F)C1CCNC1` (stereo not drawn) [Example 6-2, 3-[1-(2-Fluorophenoxy)-2-methylpropyl]pyrrolidine], the Ki on hNET [3] and on hSERT [4] was at most 100 nM each time.
As to `Cc1ccc(Cl)c(O[C@H](C2CC2)[C@H]2CCNC2)c1F` [Example 16-69, (S)-3-[(R)-(6-Chloro-2-fluoro-3-methylphenoxy)cyclopropylmethyl]pyrrolidine], the values for the Ki on hNET [3] and at hSERT [4] were at most 10 nM and at most 100 nM, respectively.
For `CC(C)C[C@H](Oc1ccc(Cl)cc1)[C@@H]1CCNC1` [Example 10-12, (R)-3-[(S)-1-(4-Chlorophenoxy)-3-methylbutyl]pyrrolidine], in that order: at most 100 nM and at most 10 nM.
For `CSc1ccccc1O[C@@H](C1CC1)[C@H]1CCNC1` [Example 16-5, (S)-3-[(S)cyclopropyl-(2-methylsulfanylphenoxy)methyl]pyrrolidine], in that order: at most 10 nM and at most 100 nM.
Turning to `CC(=O)c1c(F)cccc1O[C@@H](CC(C)C)[C@H]1CCNC1` [Example 10-38, 1-[2-Fluoro-6-((S)-3-methyl-1-(S)-pyrrolidin-3-yl-butoxy)phenyl]ethanone], the Ki on hNET [3] was at most 10 nM; at hSERT [4], at most 100 nM.
For `CC(C)CC(Oc1cccc(F)c1)C1CCNC1` (stereo not drawn) [Example 10-6, 3-[1-(3-Fluorophenoxy)-3-methylbutyl]pyrrolidine] the same measures were at most 10 nM and at most 100 nM.
For `FC(F)(F)c1cc(Cl)ccc1O[C@@H](C1CC1)[C@H]1CCNC1` [Example 16-35, (S)-3-[(S)-(4-Chloro-2-trifluoromethylphenoxy)cyclopropylmethyl]pyrrolidine], in that order: at most 10 nM and at most 10 nM.
For `CC(C)C[C@@H](Oc1ccc(Cl)cc1)[C@@H]1CCNC1` [Example 10-14, (R)-3-[(R)-1-(4-Chlorophenoxy)-3-methylbutyl]pyrrolidine], in that order: at most 100 nM and at most 10 nM.
For `CCC[C@H](Oc1cc(Cl)cc(Cl)c1)[C@@H]1CCNC1` [Example 4-8, (R)-3-[(S)-1-(3,5-Dichlorophenoxy)butyl]pyrrolidine], the Ki on hNET [3] is at most 100 nM; on hSERT [4], at most 10 nM.
For `CC(C)C[C@H](Oc1cccc(Cl)c1C(F)(F)F)[C@@H]1CCNC1` [Example 10-37, (R)-3-[(S)-1-(3-Chloro-2-trifluoromethylphenoxy)-3-methylbutyl]pyrrolidine] the same measures were at most 100 nM and at most 10 nM.
For `CC[C@@H](Oc1ccc(Cl)cc1C)[C@H]1CCNC1` [Example 2-59, (S)-3-[(R)-1-(4-Chloro-2-methylphenoxy)propyl]pyrrolidine] the same measures were at most 100 nM and at most 10 nM.
For `Fc1ccc(O[C@H](C2CC2)[C@@H]2CCNC2)cc1Cl` [Example 16-90, (R)-3-[(R)-(3-Chloro-4-fluorophenoxy)cyclopropylmethyl]pyrrolidine], in that order: at most 100 nM and at most 10 nM.
Regarding `Cc1cc(Cl)ccc1O[C@H](C1CC1)[C@@H]1CCNC1` [Example 16-32, (R)-3-[(R)-(4-Chloro-2-methylphenoxy)cyclopropylmethyl]pyrrolidine], the Ki on hNET [3] is at most 100 nM; on hSERT [4] it was at most 10 nM.
In the case of `CC[C@H](Oc1c(F)cccc1F)[C@H]1CCNC1` [Example 2-49, (S)-3-[(S)-1-(2,6-Difluorophenoxy)propyl]pyrrolidine], the Ki at hNET [3] was at most 10 nM; at hSERT [4], at most 100 nM.
For `CCCC[C@@H](Oc1ccc(C)cc1Cl)[C@H]1CCNC1` [Example 8-9, (S)-3-[(R)-1-(2-Chloro-4-methylphenoxy)pentyl]pyrrolidine], in that order: at most 100 nM and at most 10 nM.
